Results on seven compounds are retold here after patent US12351585B2, “2-phenyl-3,4-dihydropyrrolo[2,1-f] [1,2,4]triazinone derivatives as phosphodiesterase inhibitors and uses thereof” (TOPADUR PHARMA AG, priority 2015, dated 2025).

Read-outs that look alike come from different tables or passages of the source.

In assay [1] the test system is human pulmonary artery smooth muscle cells (hPASMC). Description: Measurements of cGMP in human pulmonary artery smooth muscle cells (hPASMC). The note with it: incubation 15 or 30 min. The class given is cell-based. The procedure:
Human Pulmonary Artery Smooth Muscle Cells (hPASMC) were purchased from Clonetics™ Lonza (Lonza, reference number CC-2581) and cultured in Clonetics™ smooth muscle growth medium (Clonetics™ SmGM™-2 with BulletKit™ growth factor supplements (Lonza, reference number CC-3182) at 37° C. in 500 CO2. Culture medium was replaced each 48 hours. Cells were grown in 75 cm^2 culture plates. 48 h before the experiments, cells were trypsinized (Trypsin kit One ReagentPack™ (CC-5034), Lonza) and plated in 96 well plates precoated with collagen I at 10000 cells per well. 24 h before the experiments culture medium was replaced by serum-reduced (0.5% FBS) medium.
Measurements of intracellular cGMP were performed using the Amersham cGMP EIA System (GE Healthcare, RPN226) following the instructions of the manufacturer. The assay has a sensitivity of 2 fmol cGMP per well. Briefly, incubations were terminated by adding Amersham's lysis buffer 1 and cells left for 10 min under agitation to ensure complete lysis. cGMP in samples was then acetylated using triethylamine and acetic anhydride and determined by a competitive ELISA. The ELISA is based on the competition between acetylated cGMP in cell culture lysates and a peroxidase-labelled cGMP conjugate for limited binding sites on a cGMP specific antiserum immobilized on pre-coated 96 well MTP. cGMP was determined based on a standard curve. […]

The subject of assay [2] is phenylephrine-precontracted rat aortic rings. Description: Isometric tension studies on rat aortic rings (relaxation of phenylephrine-precontracted rings). The settings on record: for potency and efficacy compared to intact endothelium, in words: L-NAME (FIG. 2C) or mechanical removal of endothelium (FIG. 2D); for EC50 / Emax: Rattus norvegicus.
Description: After 1 week of acclimatization, rats were anesthetized. Appropriate depth of anesthesia was determined by the absence of the leg flexor response and the eyelid reflex. Then, the thorax was quickly opened by a midline incision, and the rat was sacrificed by cutting the heart and exsanguination.
Indomethacin (1 μM) was added to the saline solution.
Eligible rings were then washed several times to restore tension to the baseline level.
In some experiments, the entire length of the thoracic aorta was functionally denuded of the endothelial layer by gently scraping the luminal surface with a 1.5 mm glass rod. […] Rings were then washed several times to restore tension to the baseline level.
Indomethacin (1 μM) was added to the saline solution. […] Only vessels with at least 60% relaxation to 1 μM ACh from the tension with 300 nM were eligible.
The preparations were allowed to equilibrate for 60 min in Krebs with high glucose (25 mM) before contraction to a new single concentration of PE (300 nM).
Finally, sodium nitroprusside (0.1 mM) was added, in order to obtain maximum relaxation of arterial rings.
The amount of relaxation (percent values as means±SEM) was quantified as percent relaxation from the tension (plateau) achieved with phenylephrine.
Data are presented as mean±SEM. Statistical analysis of results has been performed by analysis of variance (ANOVA) either parametric or non-parametric (Kruskal-Wallis), followed by Bonferroni test or Dunn tests as appropriate (GraphPad Software Inc, San Diego, CA, USA). Significance was accepted when P<0.05. Non-linear regression was conducted with GraphPad Software).
In assay [3] the target is human phosphodiesterase-5 (PDE5) (Homo sapiens (Human), UniProt O76074). Description: PDE5 assay: formation of 5'GMP from cGMP, PDE5 enzyme isolated from human platelets.
Description: Purpose: Evaluation of the effects of compounds of the present invention on the activity of the human phosphodiesterase-5 quantified by measuring the formation of 5′GMP from cGMP using PDE5 enzyme isolated from human platelets.
Thereafter, the reaction is initiated by addition of the enzyme and the mixture is incubated for 60 min at 22° C.
For basal control measurements, the enzyme is omitted from the reaction mixture. Following incubation SPA beads are added. After 20 min at 22° C. under shaking, the amount of [3H]5′GMP is quantified with a scintillation counter (Topcount, Packard).

What is called EC50 is the midpoint of the concentration-response curve. A lower EC50 goes with an effect from little substance. Usually Emax stands for the maximal effect, on the per cent scale that the assay sets. One may read the IC50 as the midpoint of a concentration-inhibition curve. With `CCCOc1ccc(S(=O)(=O)N2CCC(CCO)CC2)cc1-c1nn2c(CCC)c(/C=N/O)c(C)c2c(=O)[nH]1` [Compound 1r, (E)-2-(5-((4-(2-hydroxyethyl)piperidin-1-yl)sulfonyl)-2-propoxyphenyl)-5-methyl-4-oxo-7-propyl-3,4-dihydropyrrolo[2,1-f][1,2,4]triazine-6-carbaldehyde oxime], the “cGMP in hPASMC, activity compared to sildenafil” value in assay [1] was “significantly higher activity as compared to the reference inhibitor sildenafil”. Further, the “potency and efficacy compared to intact endothelium, in words” value in assay [2] was “largely impaired”. Further, the EC50 in assay [2] (High Glucose (25 mM)) came to 2.79 nM; in assay [2] (Intact Endothelium (E+)) it was 0.0074 nM; in assay [2] (L-NAME (100 μM)), 0.935 nM; in assay [2] (Without Endothelium), 5.94 nM. In addition, the Emax in assay [2] (High Glucose (25 mM)) is 51%; in assay [2] (Intact Endothelium (E+)) it was 91.9%; in assay [2] (L-NAME (100 μM)), 60.4%; in assay [2] (Without Endothelium), 39.8%. Moreover, the “relaxation of rat aortic rings, comparison in words” value in assay [2] (intact endothelium (FIG. 2A)) is “more potent and effective than Sildenafil”. Further, in assay [3], half-maximal inhibition (IC50) required 0.16 nM.
With `CCCc1c(/C=N/O)c(C)c2c(=O)[nH]c(-c3cc(S(=O)(=O)N4CCN(CCCO)CC4)ccc3OCC)nn12` [Compound 1an, (E)-2-(2-ethoxy-5-(4-(3-hydroxypropyl)piperazin-1-ylsulfonyl)phenyl)-5-methyl-4-oxo-7-propyl-3,4-dihydropyrrolo[1,2-f][1,2,4]triazine-6-carbaldehyde oxime], the IC50 in assay [3] (human platelet PDE5) came out at 0.42 nM.
The same measure, in the same setting: as for `CCCOc1ccc(S(=O)(=O)N2CCN(C)CC2)cc1-c1nn2c(CCC)c(/C=N/OC)c(C)c2c(=O)[nH]1` [Compound 1o, (E)-5-methyl-2-(5-((4-methylpiperazin-1-yl)sulfonyl)-2-propoxyphenyl)-4-oxo-7-propyl-3,4-dihydropyrrolo[2,1-f][1,2,4]triazine-6-carbaldehyde O-methyl oxime], the figure is 0.53 nM.
On to `CCCOc1ccc(S(=O)(=O)N2CCC(CCO[N+](=O)[O-])CC2)cc1-c1nn2c(CCC)c(/C=N/O)c(C)c2c(=O)[nH]1` [Compound 1v, (E)-2-(1-((3-(6-((hydroxyimino)methyl)-5-methyl-4-oxo-7-propyl-3,4-dihydropyrrolo[2,1-f][1,2,4]triazin-2-yl)-4-propoxyphenyl)sulfonyl)piperidin-4-yl)ethyl nitrate], for which the “cGMP in hPASMC, activity compared to sildenafil” value in assay [1] is on record as “significantly higher activity as compared to the reference inhibitor sildenafil”. In addition, the “potency and efficacy compared to intact endothelium, in words” value in assay [2] is “superior”. For the same compound, the “relaxation of rat aortic rings, comparison in words” value in assay [2] (intact endothelium (FIG. 2A)) was “more potent and effective than Sildenafil”; in assay [2] (pre-exposed to high glucose 25 mM (FIG. 2B)), “clearly more potent and efficacious than 1r”.
In general, % inhibition refers to the share of the control response that was lost under treatment. Higher therefore signals a strong effect. Turning to “(E)-2-(2-ethoxy-5-(4-(2-hydroxyethyl)piperidin-1-ylsulfonyl)phenyl)-5-methyl-4-oxo-7-propyl-3,4-dihydropyrrolo[1,2-f][1,2,4]triazine-6-carbaldehyde oxime [Compound 1al]”, the “% inhibition at 5.0E−09M” value in assay [3] (5.0E−09M, percent inhibition of control enzyme activity) worked out at 84.9%. In assay [3] (human platelet PDE5), the IC50 turned out to be 0.48 nM.
In the case of “(E)-2-(4-(4-ethoxy-3-(6-((methoxyimino)methyl)-5-methyl-4-oxo-7-propyl-3,4-dihydropyrrolo [1,2-f][1,2,4]triazin-2-yl)phenylsulfonyl)piperazin-1-yl)ethyl nitrate [Compound 1ai]”, the “% inhibition at 5.0E−09M” value in assay [3] came out at 0.3%.
In turn, `CCCc1c(/C=N/O)c(C)c2c(=O)[nH]c(-c3cc(S(=O)(=O)N4CCN(C)CC4)ccc3OCC)nn12` [Compound 1a, (E)-2-(2-ethoxy-5-((4-methylpiperazin-1-yl)sulfonyl)phenyl)-5-methyl-4-oxo-7-propyl-3,4-dihydropyrrolo[2,1-f][1,2,4]triazine-6-carbaldehyde oxime] showed a half-maximal inhibitory concentration (IC50) in assay [3] (human platelet PDE5) of 0.25 nM.
